Key:
adenosine A2A receptor = adenosine A2A receptor (Homo sapiens (Human), UniProt P29274); test: Adenosine receptor activity assay (Table 1), A2A activity; assay type: biochemical; details: read-out: Ave A2A cAMP IC50
adenosine A2B receptor = adenosine A2B receptor (Homo sapiens (Human), UniProt P29275); test: Adenosine receptor activity assay (Table 1), A2B activity; assay type: biochemical; details: for Ratio: A2A activity to A2B activity (A2A/A2B); for IC50: read-out: Ave A2B cAMP IC50
Chain of adenosine A2B receptor (P29275 whole entry): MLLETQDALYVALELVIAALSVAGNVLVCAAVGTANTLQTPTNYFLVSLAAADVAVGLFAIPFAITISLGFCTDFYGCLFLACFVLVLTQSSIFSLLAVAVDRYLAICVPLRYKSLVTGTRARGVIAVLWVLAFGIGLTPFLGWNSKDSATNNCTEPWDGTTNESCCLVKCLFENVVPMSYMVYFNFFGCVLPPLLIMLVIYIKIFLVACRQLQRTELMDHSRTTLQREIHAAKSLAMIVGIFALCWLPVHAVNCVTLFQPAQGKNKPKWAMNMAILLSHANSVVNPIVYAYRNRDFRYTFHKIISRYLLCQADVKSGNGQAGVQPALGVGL

Chain of adenosine A2A receptor (P29274 whole entry): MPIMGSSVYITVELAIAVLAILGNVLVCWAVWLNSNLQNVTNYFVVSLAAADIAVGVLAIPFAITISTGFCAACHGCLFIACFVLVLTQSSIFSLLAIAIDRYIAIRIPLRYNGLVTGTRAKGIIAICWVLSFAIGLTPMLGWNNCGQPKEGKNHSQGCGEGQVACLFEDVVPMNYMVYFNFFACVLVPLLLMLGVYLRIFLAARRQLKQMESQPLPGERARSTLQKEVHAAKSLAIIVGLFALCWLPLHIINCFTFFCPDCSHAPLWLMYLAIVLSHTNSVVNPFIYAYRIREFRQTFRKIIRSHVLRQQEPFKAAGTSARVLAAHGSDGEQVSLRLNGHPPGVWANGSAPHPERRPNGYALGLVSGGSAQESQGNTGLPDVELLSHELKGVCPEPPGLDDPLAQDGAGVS

IC50 (adenosine A2A receptor) [nM] | Ratio (adenosine A2B receptor) | IC50 (adenosine A2B receptor) [nM] | Compound
100 to 500 | 4.80 | 10 to 50 | CO[C@H]1CCN(C(=O)c2nc(N[C@@H](C)c3cccnc3)nc3cc(C)sc23)C1 [Example Z350, ((S)-3-Methoxypyrrolidin-1-yl)(6-methyl-2-(((S)-1-(pyridin-3-yl)ethyl)amino)thieno[3,2-d]pyrimidin-4-yl)methanone]
50 to 100 | 10.17 | < 10 | CO[C@@H]1CCN(C(=O)c2nc(N[C@@H](C)c3cccnc3)nc3cc(C)sc23)C1 [Example Z351, ((R)-3-Methoxypyrrolidin-1-yl)(6-methyl-2-(((S)-1-(pyridin-3-yl)ethyl)amino)thieno[3,2-d]pyrimidin-4-yl)methanone]
100 to 500 | 6.35 | 10 to 50 | C[C@H](Nc1nc(C(=O)N2CCC(C(=O)OC(C)(C)C)C2)c2sccc2n1)c1cncc(F)c1 (stereo partly drawn) [Example Z354, tert-Butyl 1-(2-(((S)-1-(5-fluoropyridin-3-yl)ethyl)amino)thieno[3,2-d]pyrimidine-4-carbonyl)pyrrolidine-3-carboxylate]
> 500 | 72.24 | 100 to 500 | N[C@H]1CCN(C(=O)c2nc(NCc3cncc(F)c3)nc3ccsc23)C1 [Example Z360, (S)-(3-Aminopyrrolidin-1-yl)(2-(((5-fluoropyridin-3-yl)methyl)amino)thieno[3,2-d]pyrimidin-4-yl)methanone]
> 500 | 28.33 | 100 to 500 | N[C@@H]1CCN(C(=O)c2nc(NCc3cncc(F)c3)nc3ccsc23)C1 [Example Z361, (R)-(3-Aminopyrrolidin-1-yl)(2-(((5-fluoropyridin-3-yl)methyl)amino)thieno[3,2-d]pyrimidin-4-yl)methanone]
> 500 | 95.57 | 10 to 50 | C[C@H](Nc1nc(C(=O)N2CC[C@H](N)C2)c2sccc2n1)c1cncc(F)c1 [Example Z362, ((S)-3-Aminopyrrolidin-1-yl)(2-(((S)-1-(5-fluoropyridin-3-yl)ethyl)amino)thieno[3,2-d]pyrimidin-4-yl)methanone]
> 500 | 23.53 | 100 to 500 | C[C@H](Nc1nc(C(=O)N2CC[C@H](N)C2)c2sccc2n1)c1ccccn1 [Example Z363, ((S)-3-Aminopyrrolidin-1-yl)(2-(((S)-1-(pyridin-2-yl)ethyl)amino)thieno[3,2-d]pyrimidin-4-yl)methanone]
> 500 | 11.16 | 100 to 500 | C[C@H](Nc1nc(C(=O)N2CC[C@@H](N)C2)c2sccc2n1)c1ccccn1 [Example Z364, ((R)-3-Aminopyrrolidin-1-yl)(2-(((S)-1-(pyridin-2-yl)ethyl)amino)thieno[3,2-d]pyrimidin-4-yl)methanone]
> 500 | 1.86 | > 500 | C[C@H](Nc1nc(C(=O)N2CC[C@@H](N)C2)c2sccc2n1)c1cccnc1 [Example Z366, ((R)-3-Aminopyrrolidin-1-yl)(2-(((S)-1-(pyridin-3-yl)ethyl)amino)thieno[3,2-d]pyrimidin-4-yl)methanone]
> 500 | 5.78 | > 500 | C[C@H](Nc1nc(C(=O)N2CC[C@H](N)C2)c2sccc2n1)c1cccnc1 [Example Z367, ((S)-3-Aminopyrrolidin-1-yl)(2-(((S)-1-(pyridin-3-yl)ethyl)amino)thieno[3,2-d]pyrimidin-4-yl)methanone]

The next lines start with the compound.

Compound | IC50 (adenosine A2A receptor) [nM] | Ratio (adenosine A2B receptor) | IC50 (adenosine A2B receptor) [nM]
C[C@H](Nc1nc(C(=O)N2CCC(C(=O)OC(C)(C)C)C2)c2sccc2n1)c1ccccn1 (stereo partly drawn) [Example Z355, tert-Butyl 1-(2-(((S)-1-(pyridin-2-yl)ethyl)amino)thieno[3,2-d]pyrimidine-4-carbonyl)pyrrolidine-3-carboxylate] | > 500 | 1.96 | 100 to 500
C[C@H](Nc1nc(C(=O)NCCN2CCCC2)c2sccc2n1)c1ccccn1 [Example Z356, (S)-2-((1-(Pyridin-2-yl)ethyl)amino)-N-(2-(pyrrolidin-1-yl)ethyl)thieno[3,2-d]pyrimidine-4-carboxamide] | > 500 | 3.31 | > 500
C[C@H](Nc1nc(C(=O)NCCN2CCCC2)c2sccc2n1)c1cncc(F)c1 [Example Z357, (S)-2-((1-(5-Fluoropyridin-3-yl)ethyl)amino)-N-(2-(pyrrolidin-1-yl)ethyl)thieno[3,2-d]pyrimidine-4-carboxamide] | > 500 | 3.03 | > 500
CNC1CN(C(=O)c2nc(NCc3cncc(F)c3)nc3ccsc23)C1 [Example Z358, (2-(((5-Fluoropyridin-3-yl)methyl)amino)thieno[3,2-d]pyrimidin-4-yl)(3-(methylamino)azetidin-1-yl)methanone] | > 500 | 69.69 | 100 to 500
O=C(c1nc(NCCc2ccc(O)cc2)nc2ccsc12)N1CCCC1 [Example Z359, (2-((4-Hydroxyphenethyl)amino)thieno[3,2-d]pyrimidin-4-yl)(pyrrolidin-1-yl)methanone] | 100 to 500 | 2.57 | 100 to 500
C[C@H](Nc1nc(C(=O)NCCC2CCN(C(=O)OC(C)(C)C)C2)c2sccc2n1)c1cncc(F)c1 (stereo partly drawn) [Example Z365, tert-Butyl 3-(2-(2-(((S)-1-(5-fluoropyridin-3-yl)ethyl)amino)thieno[3,2-d]pyrimidine-4-carboxamido)ethyl)pyrrolidine-1-carboxylate] | 50 to 100 | 2.19 | 10 to 50
O=C(NC[C@H]1CCCN1)c1nc(NCc2cncc(F)c2)nc2ccsc12 [Example Z369, (R)-2-(((5-Fluoropyridin-3-yl)methyl)amino)-N-(pyrrolidin-2-ylmethyl)thieno[3,2-d]pyrimidine-4-carboxamide] | > 500 | 2.26 | > 500
C[C@H](Nc1nc(C(=O)NC[C@H]2CCCN2)c2sccc2n1)c1ccccn1 [Example Z370, 2-(((S)-1-(pyridin-2-yl)ethyl)amino)-N—(((R)-pyrrolidin-2-yl)methyl)thieno[3,2-d]pyrimidine-4-carboxamide] | > 500 | 1.81 | > 500
N[C@H]1CCN(C(=O)c2nc(NCc3cc(F)cc(F)c3)nc3ccsc23)C1 [Example Z371, (S)-(3-Aminopyrrolidin-1-yl)(2-((3,5-difluorobenzyl)amino)thieno[3,2-d]pyrimidin-4-yl)methanone] | > 500 | 11.56 | > 500
Cc1cc2nc(N[C@@H](C)c3cncc(F)c3)nc(C(=O)NCCN3CCOCC3)c2s1 [Example Z372, (S)-2-((1-(5-Fluoropyridin-3-yl)ethyl)amino)-6-methyl-N-(2-morpholinoethyl)thieno[3,2-d]pyrimidine-4-carboxamide] | > 500 | 33.10 | 50 to 100
Cc1cc2nc(N[C@@H](C)c3cccnc3)nc(C(=O)NCC3CCOCC3)c2s1 [Example Z375, (S)-6-Methyl-2-((1-(pyridin-3-yl)ethyl)amino)-N-((tetrahydro-2H-pyran-4-yl)methyl)thieno[3,2-d]pyrimidine-4-carboxamide] | 100 to 500 | 7.89 | 10 to 50
